According to ChEMBL document CHEMBL5303711, “ECBD screening data for assay EOS300108” (2023):
Where a name gives a salt, the structure may show the parent alone. Calls of active or inactive are those of the source. The rule behind the calls is not given here.

Test: Cytotoxicity activity against human HepG2 cells assessed by CellTiter-Glo luminescent cell viability assay.
Format: toxicity, cell-based
Parameters: assay stage confirmatory assay, source tissue liver
Conditions: HepG2 cells, read-out: IC50 relative

SMILES | CC50
COCCN1CCCC(CNC2CCN(c3ccccc3Cl)CC2)C1 (centres undefined) | 5.2 µM (active)
OCCOCCNCc1ccc(-c2cc(Cl)cc(Cl)c2)o1 | 11.7 µM (active)
Cc1c(C(=O)Nc2ccc(N3C[C@@H](C)O[C@@H](C)C3)nc2)cccc1-c1ccc(OC(F)(F)F)cc1 [SONIDEGIB] | 37.3 µM (inactive)
Cc1cc2sc(NC(=O)NCCNS(C)(=O)=O)nc2cc1F | 2.3 µM (active)
Cc1nc(CCN[C@@H](C)c2ccc(S(N)(=O)=O)cc2)cs1 | 2.7 µM (active)
CC(C)c1nn(-c2ccccc2)cc1CNCC(C)(C)N1CCN(C)CC1 | 4.9 µM (active)
Nc1ncnc2c1ncn2[C@@H]1CC[C@@H](O)[C@H]1O | 1.6 µM (active)
Cc1nc(-c2cn3c(n2)-c2ccc(-c4cnn(C(C)(C)C(N)=O)c4)cc2OCC3)n(C(C)C)n1 [TASELISIB] | 2.1 µM (active)
O=C(NO)c1cnc(NC2(c3ccccc3)CC2)nc1 | 7 µM (active)
CCO[C@@H](CCNC(=O)c1csc(-c2ccoc2)n1)C(C)C | 1.3 µM (active)
O[C@H]1C[C@@H](c2cc(N3CCC(Oc4ccccc4Cl)CC3)ncn2)C1 | 5.6 µM (active)
CC[C@H]1CN2CCc3cc(OC)c(OC)cc3[C@@H]2C[C@@H]1C[C@H]1NCCc2cc(OC)c(OC)cc21 [EMETINE HYDROCHLORIDE] | 0.2 µM (active)
O=S(=O)(c1c[nH]cn1)N1CCNC[C@H]1c1cccc(Cl)c1 | 50 µM (inactive)
CC(C)NC[C@@H](C(=O)N1CCN(c2ncnc3c2[C@H](C)C[C@H]3O)CC1)c1ccc(Cl)cc1 [IPATASERTIB] | 13 µM (active)
Cc1nc[nH]c1CNCCCc1ccc(C(C)C)cc1 | 13.6 µM (inactive)
C=CC(=O)Nc1cc2c(Nc3ccc(F)c(Cl)c3)ncnc2cc1OCCCN1CCOCC1 [CANERTINIB] | 50 µM (inactive)
Cc1ccccc1N1CCN(C(=O)C2CCN(S(=O)(=O)c3ccc4c(c3)OCCCO4)CC2)CC1 | 1.7 µM (active)
FC(F)(F)c1ccc(/C=C/c2nc(COc3ccc(CCCCn4ccnn4)cc3)co2)cc1 [MUBRITINIB] | 0.3 µM (active)
NC(=O)Nc1cc(-c2cccc(F)c2)sc1C(=O)N[C@H]1CCCNC1 [AZD-7762] | 0.9 µM (active)
O=C(NOCC1CC1)c1ccc(F)c(F)c1Nc1ccc(I)cc1Cl [CI-1040] | 0.3 µM (active)
Cc1c(C(=O)c2cccc3ccccc23)c2cccc3c2n1[C@H](CN1CCOCC1)CO3 | 3.2 µM (active)
Cc1cc(SCC#N)n2ncc(-c3ccccc3)c2n1 | 0.9 µM (active)

SMILES | CC50
Cc1ccc(C(=O)Nc2ccc(Oc3cc4cnn(C)c4cc3-c3cn[nH]c3)c(F)c2)c(=O)n1-c1ccc(F)cc1 [MERESTINIB] | 2.9 µM (active)
Clc1cccc(N2CCN(C[C@H]3CCC4(CNC4)O3)CC2)c1 | 7 µM (active)
COc1ccc(OC)c(-c2cc(C(=O)Nc3ccccn3)no2)c1 | 0.8 µM (inactive)
Fc1ccccc1CC1CCN(C[C@H]2[C@@H]3CNC[C@@H]32)CC1 | 8.8 µM (active)
c1ccc2c(c1)[I+]c1ccccc1-2 [DIPHENYLENEIODONIUM CHLORIDE] | 0.2 µM (active)
O=c1c2ccccc2[se]n1-c1ccccc1 [EBSELEN] | 28.4 µM (inactive)
Cc1cc(NC(=O)N2CC=C(c3c[nH]c4ncccc34)CC2)no1 | 9.2 µM (inactive)
COc1cc(F)c(F)c(Nc2ccc(I)cc2F)c1NS(=O)(=O)C1(C[C@H](O)CO)CC1 [REFAMETINIB] | 0.1 µM (active)
Cc1ccc(NC(=O)Nc2ccc3c(c2)N(S(C)(=O)=O)CC3)cc1 | 8.6 µM (inactive)
COc1cc(OC)cc(N(CCNC(C)C)c2ccc3ncc(-c4cnn(C)c4)nc3c2)c1 [ERDAFITINIB] | 3.9 µM (active)
Cc1cc(Nc2ncc(Cl)c(Nc3ccccc3S(=O)(=O)C(C)C)n2)c(OC(C)C)cc1C1CCNCC1 [CERITINIB] | 0.7 µM (active)
CCN(C)C[C@H]1CCN(CCCC2CCCCC2)C1 | 4.5 µM (active)
O=S(=O)(NCCNC/C=C/c1ccc(Br)cc1)c1cccc2cnccc12 | 9.7 µM (active)
Cc1cc(C)cc(OC[C@@H](O)CN2CCC(C(=O)Nc3ccccc3)CC2)c1 | 12.1 µM (active)
COc1ccc2cc3[n+](cc2c1OC)CCc1cc2c(cc1-3)OCO2 [BERBERINE CHLORIDE] | 14.4 µM (inactive)
Cc1ccc(NC(=O)c2nc(S(C)(=O)=O)ncc2Br)cc1 | 2.7 µM (active)
COc1ccc(-c2cc3c4nn(CC(=O)Nc5ccccc5)c(=O)n4ccn3n2)cc1 | 50 µM (inactive)
C[C@@H](Oc1ccc2[nH]nc(/C=C/c3cnn(CCO)c3)c2c1)c1c(Cl)cncc1Cl [LY-2874455] | 0.7 µM (active)
O=c1ccc2ccc(OCCCCN3CCN(c4cccc5sccc45)CC3)cc2[nH]1 [BREXPIPRAZOLE] | 8.4 µM (active)
O=C(NCCCN1CCOCC1)C1CCN(c2nn3cc(-c4ccc(F)cc4)nc3s2)CC1 | 5.8 µM (active)
CCOc1cc(C)c(CN2C[C@@H](CN(C)C)C[C@H](CO)C2)cc1C(C)C | 4.1 µM (active)
CN(C)C/C=C/C(=O)Nc1cccc(C(=O)Nc2ccc(Nc3nccc(-c4cccnc4)n3)cc2)c1 | 1 µM (active)

SMILES | CC50
N#C/C(=C(/N)Sc1ccc(N)cc1)c1ccccc1C(F)(F)F | 8.6 µM (active)
COc1cc(C(=O)Nn2cnc3ccccc32)cc(Cl)c1OCC(N)=O | 8.3 µM (inactive)
CCOc1ncccc1C(=O)NCc1nccc2ccccc12 | 3.9 µM (active)
O=C(Nc1nnc2ccccn12)c1ccc(F)c(Cl)c1 | 2.7 µM (active)
O=C(Nc1cccnc1)N1CCN(c2ccc(S(=O)(=O)N3CCOCC3)cn2)CC1 | 2.5 µM (active)
CCOc1ccc(C(=O)Nc2nc3ccc(S(=O)(=O)N(C)C)cc3s2)cc1 | 19.3 µM (inactive)
CC(C)[C@H](NC1CCN(C(=O)c2ccco2)CC1)c1ccccc1 | 10.6 µM (inactive)
COc1ncc(-c2ccc3nccc(-c4ccnnc4)c3c2)cc1NS(=O)(=O)c1ccc(F)cc1F [OMIPALISIB] | 0.1 µM (active)
CN(C)CCCN1c2ccccc2Sc2ccc(Cl)cc21 [CHLORPROMAZINE HYDROCHLORIDE] | 5.4 µM (active)
CC(C)C[C@H](NC(=O)CNC(=O)c1cc(Cl)ccc1Cl)B(O)O [IXAZOMIB] | 0.1 µM (active)
CCOc1cc(N2CCC(O)CC2)ccc1Nc1ncc2c(n1)N(C1CCCC1)CCC(=O)N2C | 4.3 µM (active)
NC1(Cc2ccc(Cl)cc2)CCN(c2ncnc3[nH]ccc23)CC1 | 6.7 µM (active)
O=S1(=O)C[C@H](NC2CCCCC2)[C@@H](S(=O)(=O)c2ccc(Cl)cc2)C1 | 17 µM (active)
Oc1cc2c(cc1C(c1ccc(C(F)(F)F)cc1)N1CCOCC1)OCO2 (centres undefined) | 26 µM (inactive)
CCc1ccc(-c2cc3c(=O)n(CC(=O)NCCN(CC)CC)ncn3n2)cc1 | 6.2 µM (active)
NC(=O)c1ccc2[nH]c(-c3ccc(Oc4ccc(Cl)cc4)cc3)nc2c1 | 14.7 µM (inactive)
CN(C)S(=O)(=O)N1CCN(C(=O)c2cnn(-c3ccc(Cl)cc3)c2C(F)(F)F)CC1 | 5.2 µM (active)
CC(C)CNC(=O)N1CC(Oc2ccc(-c3noc(C4CCOCC4)n3)cc2)C1 | 4.3 µM (active)
CCOc1ccc(OCCN2CCC[C@H](n3ccnc3CC)C2)cc1 | 8.4 µM (active)
COc1cc(/N=c2\ssnc2Cl)cc(OC)c1OC | 8.1 µM (active)
